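Following 48 hours of exposure in 96-well plates, responses at five concentrations were used to interpolate endpoints linearly. GI50 marks 50% less growth.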 The source made the active and inactive calls. No stated cut-off is given here; in the data, active = GI50 up to about 1.1 µM and inactive = higher.
Experiments:
Test in all cases: DTP human tumour cell line panel, 48 h
[1] = test system: M14
[2] = test system: CAKI-1
[3] = test system: SK-MEL-2
[4] = test system: SK-MEL-5
[5] = test system: LXFL 529
[6] = test system: HT-29
[7] = test system: MOLT-4
[8] = test system: HL-60
[9] = test system: NCI-H23
[10] = test system: CCRF-CEM
[11] = test system: OVCAR-5
[12] = test system: RPMI-8226
[13] = test system: HOP-62
[14] = test system: UACC-257
[15] = test system: HCT-116
[16] = test system: SF-295
[17] = test system: SK-OV-3
[18] = test system: NCI-H460
[19] = test system: COLO 205
[20] = test system: EKVX
[21] = test system: ACHN
[22] = test system: U-251
[23] = test system: TK-10
[24] = test system: HCT-15
[25] = test system: DMS-273
[26] = test system: UO-31
[27] = test system: IGROV-1
[28] = test system: OVCAR-3
[29] = test system: KM12
[30] = test system: M19-MEL
[31] = test system: 786-0
[32] = test system: SF-268
[33] = test system: KM-20L2
[34] = test system: OVCAR-4
[35] = test system: SN12C
[36] = test system: SNB-75
[37] = test system: SK-MEL-28
[38] = test system: K562
[39] = test system: HCC 2998
[40] = test system: A549
[41] = test system: XF498
[42] = test system: Malme-3M
[43] = test system: NCI-H522
[44] = test system: SR
[45] = test system: OVCAR-8
[46] = test system: UACC-62
[47] = test system: LOX IMVI
[48] = test system: RXF 393
[49] = test system: DLD-1
[50] = test system: SW-620
[51] = test system: SNB-19
[52] = test system: A498
[53] = test system: SF-539
[54] = test system: HOP-92
[55] = test system: NCI-H226
[56] = test system: HOP-18
[57] = test system: SNB-78
[58] = test system: DMS-114

Compound: CC1OC(OP(=O)(OCc2ccccc2)OCc2ccccc2)C(OC(=O)c2ccccc2)C(OC(=O)c2ccccc2)C1I (configuration not stated)
- GI50 [1]: 37.6 µM (inactive)
- GI50 [2]: 29.6 µM (inactive)
- GI50 [3]: 23.8 µM (inactive)
- GI50 [4]: 27.3 µM (inactive)
- GI50 [5]: 41.8 µM (inactive)
- GI50 [6]: 42.9 µM (inactive)
- GI50 [7]: 17.3 µM (inactive)
- GI50 [8]: 20.7 µM (inactive)
- GI50 [9]: 30.3 µM (inactive)
- GI50 [10]: 24.5 µM (inactive)
- GI50 [11]: 98.6 µM (inactive)
- GI50 [12]: 19.6 µM (inactive)
- GI50 [13]: > 100 µM (inactive)
- GI50 [14]: 39.3 µM (inactive)
- GI50 [15]: 28.1 µM (inactive)
- GI50 [16]: 88.3 µM (inactive)
- GI50 [17]: > 100 µM (inactive)
- GI50 [18]: 34 µM (inactive)
- GI50 [19]: 30.2 µM (inactive)
- GI50 [20]: 40.9 µM (inactive)
- GI50 [21]: 32.6 µM (inactive)
- GI50 [22]: 50.4 µM (inactive)
- GI50 [23]: > 100 µM (inactive)
- GI50 [24]: 45.9 µM
- GI50 [25]: 53 µM (inactive)
- GI50 [26]: 27.4 µM (inactive)
- GI50 [27]: 76 µM (inactive)
- GI50 [28]: 46 µM (inactive)
- GI50 [29]: 35 µM (inactive)
- GI50 [30]: 61.5 µM (inactive)
- GI50 [31]: 50.9 µM (inactive)
- GI50 [32]: 52.2 µM (inactive)
- GI50 [33]: 51.2 µM (inactive)
- GI50 [34]: 60.1 µM (inactive)
- GI50 [35]: 20.9 µM (inactive)
- GI50 [36]: 9.31 µM (inactive)
- GI50 [37]: 86.7 µM (inactive)
- GI50 [38]: 29.3 µM (inactive)
- GI50 [39]: 54.6 µM (inactive)
- GI50 [40]: 26.4 µM (inactive)
- GI50 [41]: > 100 µM (inactive)
- GI50 [42]: 39.4 µM (inactive)
- GI50 [43]: 21.4 µM (inactive)
- GI50 [44]: 17.5 µM (inactive)
- GI50 [45]: 98.4 µM (inactive)
- GI50 [46]: 48.9 µM (inactive)
- GI50 [47]: 47.4 µM (inactive)
- GI50 [48]: 12.7 µM (inactive)
- GI50 [49]: 50 µM (inactive)
- GI50 [50]: 72.8 µM (inactive)
- GI50 [51]: 43.8 µM (inactive)

Compound: C[n+]1ccc2[nH]c3ccccc3c2c1
- GI50 [52]: 90.2 µM (inactive)
- GI50 [1]: > 100 µM (inactive)
- GI50 [2]: > 100 µM (inactive)
- GI50 [3]: > 100 µM (inactive)
- GI50 [4]: > 78.3 µM (inactive)
- GI50 [5]: > 100 µM (inactive)
- GI50 [6]: > 100 µM (inactive)
- GI50 [7]: 38.8 µM (inactive)
- GI50 [8]: > 100 µM (inactive)
- GI50 [9]: > 100 µM (inactive)
- GI50 [10]: > 100 µM (inactive)
- GI50 [11]: > 58.3 µM (inactive)
- GI50 [12]: > 100 µM (inactive)
- GI50 [13]: > 52.8 µM (inactive)
- GI50 [53]: > 100 µM (inactive)
- GI50 [54]: > 100 µM (inactive)
- GI50 [14]: > 100 µM (inactive)
- GI50 [15]: 48.6 µM (inactive)
- GI50 [55]: 61 µM (inactive)
- GI50 [16]: > 100 µM (inactive)
- GI50 [17]: > 100 µM (inactive)
- GI50 [18]: > 77.4 µM (inactive)
- GI50 [19]: > 100 µM (inactive)
- GI50 [20]: > 100 µM (inactive)
- GI50 [21]: > 100 µM (inactive)
- GI50 [56]: > 45 µM (inactive)
- GI50 [22]: > 100 µM (inactive)
- GI50 [23]: > 100 µM (inactive)
- GI50 [24]: > 100 µM
- GI50 [25]: > 100 µM (inactive)
- GI50 [26]: > 100 µM (inactive)
- GI50 [27]: > 100 µM (inactive)
- GI50 [28]: > 100 µM (inactive)
- GI50 [29]: 77.1 µM (inactive)
- GI50 [30]: > 100 µM (inactive)
- GI50 [57]: > 100 µM (inactive)
- GI50 [31]: > 100 µM (inactive)
- GI50 [32]: > 100 µM (inactive)
- GI50 [33]: > 100 µM (inactive)
- GI50 [34]: > 100 µM (inactive)
- GI50 [35]: > 100 µM (inactive)
- GI50 [36]: > 100 µM (inactive)
- GI50 [37]: > 100 µM (inactive)
- GI50 [38]: > 100 µM (inactive)
- GI50 [39]: > 100 µM (inactive)
- GI50 [40]: > 100 µM (inactive)
- GI50 [42]: 35.6 µM (inactive)
- GI50 [43]: > 100 µM (inactive)
- GI50 [45]: > 100 µM (inactive)
- GI50 [46]: > 100 µM (inactive)
- GI50 [47]: > 100 µM (inactive)
- GI50 [48]: > 100 µM (inactive)
- GI50 [49]: > 100 µM (inactive)
- GI50 [50]: > 86.3 µM (inactive)
- GI50 [51]: > 100 µM (inactive)

Compound: CC12O[Te]34OC1(C)C(C)(O3)C2(C)O4
- GI50 [52]: > 8.75 µM (inactive)
- GI50 [1]: 16.5 µM (inactive)
- GI50 [2]: 9.71 µM (inactive)
- GI50 [3]: 15.7 µM (inactive)
- GI50 [5]: 14.6 µM (inactive)
- GI50 [6]: 13.2 µM (inactive)
- GI50 [7]: 6.47 µM (inactive)
- GI50 [9]: 16.4 µM (inactive)
- GI50 [11]: 12.2 µM (inactive)
- GI50 [13]: 20.4 µM (inactive)
- GI50 [53]: 15.9 µM (inactive)
- GI50 [14]: 17.4 µM (inactive)
- GI50 [15]: 11.9 µM (inactive)
- GI50 [55]: 16.9 µM (inactive)
- GI50 [16]: 3.86 µM (inactive)
- GI50 [17]: 22 µM (inactive)
- GI50 [18]: 15.3 µM (inactive)
- GI50 [19]: 16.9 µM (inactive)
- GI50 [20]: 20.1 µM (inactive)
- GI50 [21]: 14.8 µM (inactive)
- GI50 [56]: 17.5 µM (inactive)
- GI50 [22]: 3.77 µM (inactive)
- GI50 [23]: 17 µM (inactive)
- GI50 [24]: 17.4 µM
- GI50 [25]: 16.4 µM (inactive)
- GI50 [26]: 11.8 µM (inactive)
- GI50 [27]: 11.9 µM (inactive)
- GI50 [28]: 17.9 µM (inactive)
- GI50 [29]: 14.8 µM (inactive)
- GI50 [30]: 13.5 µM (inactive)
- GI50 [57]: 25.5 µM (inactive)
- GI50 [31]: 15.3 µM (inactive)
- GI50 [32]: 11.8 µM (inactive)
- GI50 [33]: 32.4 µM (inactive)
- GI50 [34]: 14.6 µM (inactive)
- GI50 [35]: 10.9 µM (inactive)
- GI50 [58]: 13.6 µM (inactive)
- GI50 [36]: > 8.75 µM (inactive)
- GI50 [37]: 12 µM (inactive)
- GI50 [39]: 0.016 µM (active)
- GI50 [40]: 12.3 µM (inactive)
- GI50 [42]: 18.1 µM (inactive)
- GI50 [43]: 11.8 µM (inactive)
- GI50 [44]: 7.66 µM (inactive)
- GI50 [45]: 12.5 µM (inactive)
- GI50 [46]: 30.1 µM (inactive)
- GI50 [47]: 3.56 µM (inactive)
- GI50 [48]: 14.8 µM (inactive)
- GI50 [49]: 15.3 µM (inactive)
- GI50 [50]: 14.8 µM (inactive)
- GI50 [51]: 14.6 µM (inactive)

— ChEMBL document CHEMBL1201862, “PubChem BioAssay data set” (2004)
